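These data come from cells grown in 96-well plates and exposed to compound for 48 hours at five concentrations. GI50: concentration for 50% inhibition of growth.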 Calls of active or inactive are those of the source. No stated cut-off is given here; in the data, active = GI50 up to about 1.1 µM and inactive = higher.

Test systems include CAKI-1; CCRF-CEM; HCT-116; HOP-62; HT-29; Hs-578T; K562; LOX IMVI; MCF7; MDA-MB-231; MOLT-4; NCI-H460; OVCAR-8; PC-3; SF-268; SF-295; SK-OV-3; SNB-19; UACC-257; UACC-62.
Assay in all cases: DTP human tumour cell line panel, 48 h

Broadly, the GI50 is the concentration that inhibits growth by half. As to `CN1CC(c2ccccc2)=CC2=C1C=CC(=N)/C2=N\N`, the GI50 in the experiment on CAKI-1 is 5.46 µM (inactive); in the experiment with CCRF-CEM, > 100 µM (inactive); with HCT-116, > 100 µM (inactive); in the experiment on HOP-62, 71.8 µM (inactive); with HT-29, > 100 µM (inactive); in the experiment on Hs-578T, 35.3 µM (inactive). Also, the GI50 with K562, in the experiment on LOX IMVI, in the experiment on MCF7, in the experiment on MDA-MB-231, in the experiment with MOLT-4 and with NCI-H460 was > 100 µM (inactive) in each case. For the same compound, the GI50 was > 100 µM (inactive) in the experiment on OVCAR-8; > 100 µM (inactive) in the experiment on PC-3; > 100 µM (inactive) with SF-268; 75.3 µM (inactive) in the experiment on SF-295; > 100 µM (inactive) in the experiment on SK-OV-3; 86.9 µM (inactive) with SNB-19. Besides, the GI50 in the experiment with UACC-257 and in the experiment on UACC-62 was > 100 µM (inactive) throughout.
`CN(C)CCn1c(=O)c2ccc(NCCCN(C)CCCNc3ccc4c(=O)n(CCN(C)C)c(=O)n5c6ccc([N+](=O)[O-])cc6c(=O)c3c45)c3c(=O)c4cc([N+](=O)[O-])ccc4n(c1=O)c23`: the GI50 in the experiment with CAKI-1 was < 0.033 µM (active); with CCRF-CEM, < 0.01 µM (active); in the experiment with HCT-116 it was < 0.01 µM (active); in the experiment with HOP-62, < 0.01 µM (active); in the experiment on HT-29, < 0.01 µM (active); in the experiment with Hs-578T, 0.0178 µM (active). Moreover, the GI50 was < 0.01 µM (active) in the experiment with K562; < 0.01 µM (active) with LOX IMVI; < 0.01 µM (active) in the experiment with MCF7; < 0.021 µM (active) with MDA-MB-231; < 0.01 µM (active) in the experiment on MOLT-4; < 0.01 µM (active) in the experiment with NCI-H460. The GI50 with OVCAR-8 was < 0.01 µM (active); in the experiment on PC-3 it was < 0.01 µM (active); in the experiment on SF-268 it was 0.0163 µM (active); in the experiment with SF-295, 0.0136 µM (active); in the experiment with SK-OV-3, < 0.0258 µM (active); in the experiment with SNB-19 it was < 0.01 µM (active). Further, the GI50 in the experiment on UACC-257 is 0.069 µM (active); in the experiment on UACC-62 it was < 0.0246 µM (active).
As for `O=C(c1ccc(Cl)cc1)N(Cc1cccnc1)C(=S)N(Cc1cccnc1)C(=O)c1ccc(Cl)cc1`, the GI50 in the experiment on CAKI-1 was 42.4 µM (inactive); with CCRF-CEM, 50 µM (inactive); with HCT-116, 27.1 µM (inactive); with HOP-62 it was 50.7 µM (inactive); in the experiment on HT-29, 26.1 µM (inactive); with Hs-578T, 48.4 µM (inactive). Moreover, the GI50 with K562 was 22.9 µM (inactive); in the experiment with LOX IMVI, 22 µM (inactive); with MCF7 it was 29.7 µM (inactive); in the experiment on MDA-MB-231 it was 26.5 µM (inactive); in the experiment on MOLT-4 it was 16.1 µM (inactive); with NCI-H460, 44.2 µM (inactive). The GI50 in the experiment on OVCAR-8 was 29.6 µM (inactive); in the experiment with PC-3 it was 30.3 µM (inactive); in the experiment with SF-268 it was 28.3 µM (inactive); in the experiment with SF-295, 43.3 µM (inactive); in the experiment with SK-OV-3 it was > 100 µM (inactive); with SNB-19 it was 41.5 µM (inactive). Also, the GI50 in the experiment with UACC-257 is 33.6 µM (inactive); with UACC-62 it was 24.3 µM (inactive).
Take `Cn1c(=O)c2c(nc3n(Cc4ccccc4)c(=O)c(NCCBr)cn23)n(C)c1=O`: the GI50 in the experiment with CAKI-1 is 18.5 µM (inactive); with CCRF-CEM, 45.5 µM (inactive); with HCT-116, 28.8 µM (inactive); in the experiment with HOP-62, 18.8 µM (inactive); in the experiment with HT-29 it was 41.2 µM (inactive); with Hs-578T, 29 µM (inactive). The GI50 in the experiment on K562 is 46 µM (inactive); with LOX IMVI, 28.4 µM (inactive); in the experiment on MCF7, 24.4 µM (inactive); in the experiment on MDA-MB-231, 26.5 µM (inactive); in the experiment on MOLT-4, 45.6 µM (inactive); with NCI-H460, 26.9 µM (inactive). Moreover, the GI50 in the experiment with OVCAR-8 is 14.7 µM (inactive); in the experiment with PC-3, 20.1 µM (inactive); in the experiment with SF-268 it was 25.8 µM (inactive); in the experiment with SF-295, 21.9 µM (inactive); in the experiment with SK-OV-3 it was 25.3 µM (inactive); with SNB-19, 30.4 µM (inactive). The GI50 in the experiment on UACC-257 is 25.7 µM (inactive); in the experiment with UACC-62, 26.5 µM (inactive).
In the case of `COc1cc(OC)c2c(=O)c3cccc(C)c3n(C)c2c1`, the GI50 is > 100 µM (inactive) with CAKI-1; 36.3 µM (inactive) with CCRF-CEM; 48.3 µM (inactive) in the experiment with HCT-116; > 100 µM (inactive) with HOP-62; 27.9 µM (inactive) with HT-29; 58.7 µM (inactive) with Hs-578T. The GI50 is 25.8 µM (inactive) in the experiment with K562; 55.7 µM (inactive) with LOX IMVI; 34 µM (inactive) in the experiment on MCF7; > 100 µM (inactive) in the experiment on MDA-MB-231; 52.4 µM (inactive) with MOLT-4; 94 µM (inactive) with NCI-H460. The GI50 in the experiment with OVCAR-8 is 64.7 µM (inactive); in the experiment with PC-3, 50.9 µM (inactive); with SF-268, 72.6 µM (inactive); in the experiment on SF-295, 57.7 µM (inactive); in the experiment on SK-OV-3 it was > 100 µM (inactive); in the experiment with SNB-19, > 100 µM (inactive). The GI50 in the experiment on UACC-257 is 43.5 µM (inactive); in the experiment on UACC-62, 61.4 µM (inactive).
As to `C=C1C(=O)OC2/C=C(/CO)C3(O)CC(O)C(C)(CC(OC(=O)/C(C)=C/C)C12)O3` (stereo not given), the GI50 in the experiment on CAKI-1 was 4.33 µM (inactive); in the experiment on CCRF-CEM, 2.1 µM (inactive); in the experiment on HCT-116 it was 6.73 µM (inactive); in the experiment on HOP-62, 49.3 µM (inactive); in the experiment with HT-29, 8.09 µM (inactive); with Hs-578T, 53.5 µM (inactive). Further, the GI50 in the experiment on K562 was 4.47 µM (inactive); in the experiment with LOX IMVI, 11 µM (inactive); with MCF7 it was 6.73 µM (inactive); in the experiment with MDA-MB-231, 15.3 µM (inactive); with MOLT-4 it was 2.47 µM (inactive); in the experiment on NCI-H460 it was 14.9 µM (inactive). The GI50 in the experiment with OVCAR-8 is 7.66 µM (inactive); in the experiment with PC-3 it was 26.3 µM (inactive); with SF-268, 11 µM (inactive); with SF-295, 36.3 µM (inactive); with SK-OV-3, 21.4 µM (inactive); in the experiment with SNB-19, 36.5 µM (inactive). Moreover, the GI50 is 15.4 µM (inactive) in the experiment with UACC-257 and 6.62 µM (inactive) in the experiment on UACC-62.
On to `COc1ccc(OCC(=N/NC(=O)c2ccncc2)/N=C/c2ccncc2)cc1`, for which the GI50 is > 100 µM (inactive) in the experiment with CAKI-1; > 100 µM (inactive) with CCRF-CEM; 83.9 µM (inactive) with HCT-116; 71.8 µM (inactive) in the experiment on HOP-62; 57 µM (inactive) in the experiment on HT-29; > 100 µM (inactive) in the experiment on Hs-578T. The GI50 with K562 is 57.9 µM (inactive); with LOX IMVI it was > 100 µM (inactive); in the experiment on MCF7, 54.6 µM (inactive); in the experiment with MDA-MB-231 it was > 100 µM (inactive); in the experiment on MOLT-4, 90.2 µM (inactive); in the experiment on NCI-H460, > 100 µM (inactive). Moreover, the GI50 with OVCAR-8 is > 100 µM (inactive); in the experiment on PC-3, > 100 µM (inactive); with SF-268, > 100 µM (inactive); in the experiment with SF-295, 42.9 µM (inactive); in the experiment on SK-OV-3, 94.4 µM (inactive); with SNB-19, > 100 µM (inactive). Moreover, the GI50 was > 100 µM (inactive) with UACC-257 and 53.6 µM (inactive) in the experiment on UACC-62.
On to `CCCCCCCCC/C=C/C=C/C(=O)NCC(=O)NC1C(O)C(O)C(Nc2ncnc3[nH]cnc23)OC1C(O)CO` (stereo not given), for which the GI50 with CAKI-1 is 0.00692 µM (active); with CCRF-CEM, 2.39 µM (inactive); in the experiment with HCT-116, 0.00323 µM (active); with HOP-62, 0.00412 µM (active); with HT-29, 0.0011 µM (active); with Hs-578T, 0.00432 µM (active). The GI50 in the experiment with K562 is 0.063 µM (active); with LOX IMVI, 0.00234 µM (active); in the experiment with MCF7, 0.668 µM (active); with MDA-MB-231, 0.0538 µM (active); with MOLT-4, 0.158 µM (active); with NCI-H460 it was 0.00189 µM (active). For the same compound, the GI50 was 0.00413 µM (active) in the experiment with OVCAR-8; 0.00023 µM (active) in the experiment on PC-3; 0.0143 µM (active) in the experiment with SF-268; 0.00796 µM (active) in the experiment on SF-295; 0.001 µM (active) with SK-OV-3; 0.00175 µM (active) with SNB-19. The GI50 was 0.00444 µM (active) in the experiment on UACC-257 and 0.00507 µM (active) with UACC-62.
`O=C1OC(c2ccccc2)=N/C1=C\c1ccc(N(CCCl)CCCl)cc1`: the GI50 is > 100 µM (inactive) in the experiment with CAKI-1; 26 µM (inactive) in the experiment on CCRF-CEM; > 100 µM (inactive) in the experiment with HCT-116; > 89.5 µM (inactive) in the experiment with HOP-62; > 100 µM (inactive) in the experiment with HT-29; > 100 µM (inactive) in the experiment on Hs-578T. Also, the GI50 with K562 was 16.5 µM (inactive); with LOX IMVI it was > 91.4 µM (inactive); in the experiment with MCF7, 39.9 µM (inactive); with MDA-MB-231, > 100 µM (inactive); in the experiment with MOLT-4, 44.9 µM (inactive); in the experiment with NCI-H460, > 77.4 µM (inactive). Further, the GI50 in the experiment with OVCAR-8 was > 100 µM (inactive); in the experiment with PC-3, > 86.5 µM (inactive); in the experiment on SF-268, > 88.7 µM (inactive); in the experiment on SF-295 it was > 100 µM (inactive); with SK-OV-3, > 100 µM (inactive); in the experiment with SNB-19 it was > 100 µM (inactive). For the same compound, the GI50 in the experiment with UACC-257 and in the experiment with UACC-62 was > 100 µM (inactive) in each case.
As to `C=C1CC2(CC(c3ccccc3C)OC(c3ccccc3C)C2)OC1=O` (stereo not given), the GI50 in the experiment on CAKI-1 is 1.87 µM (inactive); in the experiment with CCRF-CEM, 2.04 µM (inactive); in the experiment on HCT-116, 1.82 µM (inactive); in the experiment with HOP-62, 10.7 µM (inactive); in the experiment with HT-29 it was 1.82 µM (inactive); in the experiment on Hs-578T, 2.24 µM (inactive). The GI50 with K562 was 2.15 µM (inactive); with LOX IMVI, 1.58 µM (inactive); in the experiment on MCF7 it was 1.85 µM (inactive); in the experiment with MDA-MB-231 it was 1.6 µM (inactive); in the experiment with MOLT-4, 2.77 µM (inactive); in the experiment on NCI-H460, 2.96 µM (inactive). Further, the GI50 in the experiment on OVCAR-8 is 2.19 µM (inactive); with PC-3 it was 2.21 µM (inactive); with SF-268, 1.83 µM (inactive); in the experiment on SF-295, 15.8 µM (inactive); in the experiment with SK-OV-3, 11.6 µM (inactive); with SNB-19, 16.3 µM (inactive). Further, the GI50 in the experiment on UACC-257 is 1.78 µM (inactive); in the experiment on UACC-62, 1.54 µM (inactive).
